Test results reported in ChEMBL document CHEMBL1201862, “PubChem BioAssay data set” (2004).
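Five compound concentrations were applied to cells in 96-well plates for 48 hours; endpoints were derived by simple linear interpolation of the resulting dose-response curve. GI50 is the concentration that inhibits growth by half.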 Active and inactive are the calls of the source. No stated cut-off is given here; in the data, active = GI50 up to about 1.1 µM and inactive = higher.

Experiments:
Assay in all cases: DTP human tumour cell line panel, 48 h
[1] = system: 786-0
[2] = system: A498
[3] = system: ACHN
[4] = system: CAKI-1
[5] = system: CCRF-CEM
[6] = system: COLO 205
[7] = system: EKVX
[8] = system: HCT-116
[9] = system: HT-29
[10] = system: KM12
[11] = system: LOX IMVI
[12] = system: MCF7
[13] = system: Malme-3M
[14] = system: NCI-H460
[15] = system: OVCAR-4
[16] = system: RXF 393
[17] = system: U-251
[18] = system: UACC-62
[19] = system: TK-10
[20] = system: SF-539

SMILES | GI50 [1] | GI50 [2] | GI50 [3] | GI50 [4] | GI50 [5] | GI50 [6] | GI50 [7] | GI50 [8] | GI50 [9] | GI50 [10] | GI50 [11] | GI50 [12] | GI50 [13] | GI50 [14] | GI50 [15] | GI50 [16] | GI50 [17] | GI50 [18] | GI50 [19] | GI50 [20]
O=CC(O)C(O)C1OC(=O)c2cc(O)c(O)c(O)c2C2=C(O)C(O)=C3OC(=O)c4c(c(O)c(O)c5c4C3C2C(=O)O5)-c2c(cc(O)c(O)c2O)C(=O)OCC1O (stereo not drawn) | 16.3 µM (inactive) | 44.9 µM (inactive) | 44.2 µM (inactive) | 18.1 µM (inactive) | 20.4 µM (inactive) | 23.2 µM (inactive) | 23.7 µM (inactive) | 15.4 µM (inactive) | 15.7 µM (inactive) | 10.4 µM (inactive) | 13.6 µM (inactive) | 17.2 µM (inactive) | 81.8 µM (inactive) | 26.2 µM (inactive) | 16.7 µM (inactive) | > 100 µM (inactive) | 19.2 µM (inactive) | 29.2 µM (inactive) | – | –
Cc1ccc(-c2cc(-c3ccco3)c(C#N)c(=S)[nH]2)cc1 | 77.3 µM (inactive) | 36.3 µM (inactive) | 35.6 µM (inactive) | > 100 µM (inactive) | 38.3 µM (inactive) | 97.3 µM (inactive) | 90.6 µM (inactive) | 50.5 µM (inactive) | 92.3 µM (inactive) | 63.2 µM (inactive) | 34.8 µM (inactive) | 16.2 µM (inactive) | 24.2 µM (inactive) | 46.2 µM (inactive) | 75.5 µM (inactive) | 55.8 µM (inactive) | 21.4 µM (inactive) | 26.8 µM (inactive) | > 100 µM (inactive) | –
Cc1ccc(S(=O)(=O)N2CCC[C@@H]2C(=O)O[C@@H]2CCC3CC=CC32)cc1 (stereo partly drawn) | 19.9 µM (inactive) | 24.8 µM (inactive) | 38.5 µM (inactive) | – | 24.8 µM (inactive) | 16.6 µM (inactive) | 41.6 µM (inactive) | 30.4 µM (inactive) | 24 µM (inactive) | 28.3 µM (inactive) | 16.1 µM (inactive) | 33.9 µM (inactive) | 24.5 µM (inactive) | 35.6 µM (inactive) | 47 µM (inactive) | 20 µM (inactive) | 34.3 µM (inactive) | 27.9 µM (inactive) | 42.5 µM (inactive) | 44.5 µM (inactive)
CC(Cn1c(=O)oc2ccccc21)N(C)C (stereo not drawn) | > 100 µM (inactive) | > 100 µM (inactive) | > 100 µM (inactive) | > 100 µM (inactive) | > 100 µM (inactive) | > 100 µM (inactive) | > 100 µM (inactive) | > 100 µM (inactive) | > 100 µM (inactive) | > 100 µM (inactive) | > 100 µM (inactive) | > 100 µM (inactive) | > 100 µM (inactive) | > 100 µM (inactive) | – | > 100 µM (inactive) | > 100 µM (inactive) | > 100 µM (inactive) | > 100 µM (inactive) | > 100 µM (inactive)
Cc1cn(C(Cc2ccccc2)OCCO)c(=O)[nH]c1=O (stereo not drawn) | > 100 µM (inactive) | > 100 µM (inactive) | > 100 µM (inactive) | > 100 µM (inactive) | > 100 µM (inactive) | > 100 µM (inactive) | > 100 µM (inactive) | > 100 µM (inactive) | > 100 µM (inactive) | > 100 µM (inactive) | > 100 µM (inactive) | > 100 µM (inactive) | – | > 100 µM (inactive) | > 100 µM (inactive) | > 100 µM (inactive) | > 100 µM (inactive) | > 100 µM (inactive) | – | > 100 µM (inactive)
CC[C@]1(Cc2ccc(OC)c(OC)c2)C=[N+]([O-])O[C@H](OC2CCCCC2c2ccccc2)[C@@H]1OC(C)=O (stereo partly drawn) | 45.3 µM (inactive) | > 100 µM (inactive) | 30.5 µM (inactive) | 21.2 µM (inactive) | 23.2 µM (inactive) | 19.9 µM (inactive) | 46.7 µM (inactive) | 34.1 µM (inactive) | 45.1 µM (inactive) | 39.6 µM (inactive) | 40.9 µM (inactive) | 28.8 µM (inactive) | 52.8 µM (inactive) | 37.5 µM (inactive) | 33 µM (inactive) | 22.5 µM (inactive) | 46.6 µM (inactive) | 56.1 µM (inactive) | > 100 µM (inactive) | –
Cc1[nH]c2ccccc2c1C1=CC(=O)N(c2ccccc2)C1=O | 10.8 µM (inactive) | 9.71 µM (inactive) | 23.2 µM (inactive) | 6.22 µM (inactive) | 8.45 µM (inactive) | 17.7 µM (inactive) | 16.8 µM (inactive) | 8.75 µM (inactive) | 5.58 µM (inactive) | – | 5.55 µM (inactive) | 5.28 µM (inactive) | 13.9 µM (inactive) | 14.6 µM (inactive) | – | 6.67 µM (inactive) | 17.3 µM (inactive) | 9.82 µM (inactive) | 11.1 µM (inactive) | 10.8 µM (inactive)
N#Cc1c2c(c(N3CCOCC3)n3c1nc1ccccc13)CCCC2 | 16.3 µM (inactive) | 19 µM (inactive) | 14.8 µM (inactive) | 19.1 µM (inactive) | 2.75 µM (inactive) | 20.9 µM (inactive) | 16.2 µM (inactive) | 13.9 µM (inactive) | 16.4 µM (inactive) | > 100 µM (inactive) | 17.3 µM (inactive) | 26.2 µM (inactive) | 17.7 µM (inactive) | 23.7 µM (inactive) | 20 µM (inactive) | – | 14.3 µM (inactive) | 22.3 µM (inactive) | 23.1 µM (inactive) | 19.1 µM (inactive)
O=C1CSc2nc3ccccc3n2/C=N\N1 | > 100 µM (inactive) | > 100 µM (inactive) | > 100 µM (inactive) | > 100 µM (inactive) | > 100 µM (inactive) | > 100 µM (inactive) | – | > 100 µM (inactive) | > 100 µM (inactive) | > 100 µM (inactive) | > 100 µM (inactive) | > 100 µM (inactive) | – | > 100 µM (inactive) | > 100 µM (inactive) | > 100 µM (inactive) | > 100 µM (inactive) | > 100 µM (inactive) | > 100 µM (inactive) | –
Cc1nc2c(=O)[nH]ncc2[nH]1 | > 100 µM (inactive) | > 100 µM (inactive) | > 100 µM (inactive) | > 100 µM (inactive) | > 100 µM (inactive) | > 100 µM (inactive) | > 100 µM (inactive) | > 100 µM (inactive) | > 100 µM (inactive) | 84.1 µM (inactive) | – | > 100 µM (inactive) | – | > 100 µM (inactive) | – | > 100 µM (inactive) | > 100 µM (inactive) | > 100 µM (inactive) | > 100 µM (inactive) | > 100 µM (inactive)
CCOC(=O)Cc1nc2sc(S(N)(=O)=O)nn2c1Br | 23.2 µM (inactive) | 26.5 µM (inactive) | 27.2 µM (inactive) | 17.2 µM (inactive) | < 0.01 µM (active) | 39.4 µM (inactive) | 26.6 µM (inactive) | 31 µM (inactive) | 19.4 µM (inactive) | 32.3 µM (inactive) | 16.1 µM (inactive) | 24.7 µM (inactive) | 29.2 µM (inactive) | 32 µM (inactive) | – | 21.7 µM (inactive) | 15.3 µM (inactive) | 16.6 µM (inactive) | 35.1 µM (inactive) | –
CN(C)c1ccc(/C=N/NC(=O)c2cnc3ccccc3c2)cc1 | 78.5 µM (inactive) | > 100 µM (inactive) | > 100 µM (inactive) | > 100 µM (inactive) | – | > 100 µM (inactive) | 58.6 µM (inactive) | > 100 µM (inactive) | – | 38.5 µM (inactive) | > 100 µM (inactive) | > 100 µM (inactive) | 18.6 µM (inactive) | > 100 µM (inactive) | > 100 µM (inactive) | 19.9 µM (inactive) | 38.7 µM (inactive) | > 100 µM (inactive) | 26.3 µM (inactive) | 52 µM (inactive)
CC(C)c1ccc2c(c1)/C(=C1/Nc3ccccc3C1=O)C(=O)N2 | 3.52 µM (inactive) | 2.34 µM (inactive) | 3.71 µM (inactive) | 14.3 µM (inactive) | 27.3 µM (inactive) | > 100 µM (inactive) | 5.7 µM (inactive) | 11.3 µM (inactive) | 26.8 µM (inactive) | 0.0973 µM (active) | > 100 µM (inactive) | 0.0188 µM (active) | 46.8 µM (inactive) | 9.27 µM (inactive) | 1.7 µM (inactive) | 1.42 µM (inactive) | 10.6 µM (inactive) | 14.9 µM (inactive) | 5.01 µM (inactive) | –
COc1ccc(CCNC(=O)[C@H]2CCCC[C@@H]2CCO)cc1OC | > 100 µM (inactive) | > 100 µM (inactive) | > 100 µM (inactive) | > 100 µM (inactive) | > 100 µM (inactive) | > 100 µM (inactive) | > 100 µM (inactive) | > 100 µM (inactive) | > 100 µM (inactive) | > 100 µM (inactive) | – | > 100 µM (inactive) | – | > 100 µM (inactive) | > 100 µM (inactive) | > 100 µM (inactive) | > 100 µM (inactive) | > 100 µM (inactive) | > 100 µM (inactive) | > 100 µM (inactive)
CN(C)C(=O)C1CCN(Cc2c[nH]c3ccccc23)CC1 | > 100 µM (inactive) | > 100 µM (inactive) | > 100 µM (inactive) | > 100 µM (inactive) | – | > 100 µM (inactive) | > 100 µM (inactive) | > 100 µM (inactive) | > 100 µM (inactive) | > 100 µM (inactive) | > 100 µM (inactive) | > 100 µM (inactive) | > 100 µM (inactive) | – | > 100 µM (inactive) | > 100 µM (inactive) | > 100 µM (inactive) | > 100 µM (inactive) | > 100 µM (inactive) | –
